The values that follow come from patent publication US20020061345A1, “PROCEDURE FOR PREPARING A FOOD ADDITIVE, AND AN ADDITIVE AND ITS USE” (priority 1996, published 2002).

Assay [1] can be described thus: Example 6 feeding test in growing piglets, growth and diarrhoea. Type of assay: in vivo. How it is done: An amount of a product obtained from baking yeast by hydrolytic treatment, was added to the fodder of growing piglets. The fodder for the reference group contained Olaqvindox chemotherapeutic substance, 50 mg/kg. In the fodder for the yeast group, instead of Olaqvindox, yeast fraction was added in an amount of 0.5%.

A short description of assay [2]: Example 7 feeding test in growing pigs. The settings on record: Olagvindox 50 ppm, 33 test days. Type of assay: in vivo. How it is done: An amount of a product obtained from baking yeast by hydrolytic treatment, was added to the fodder of growing pigs. The measurement was implemented as in the preceding example.
Assay [3] can be described thus: Example 5 feeding test, development of piglets. Type of assay: in vivo, pigs. An excerpt:
In this test, four equal groups of pigs were fed with the following fodders:
Group 1: basic fodder (reference)
Group 2: basic fodder+40 ppm Avilamysine
Group 3: basic fodder+product prepared from yeast by hydrolytic treatment, in an amount of 0.5 w-% (of dry matter)
Group 4: basic fodder+product prepared from yeast by hydrolytic treatment, in an amount of 1.0 w-% (of dry matter).

Setting [4] is: group 2, basic fodder + 40 ppm Avilamysine.

Marks after values point to notes of the source that are not given here.

As to `Cc1c(C(=O)NCCO)[n+]([O-])c2ccccc2[n+]1[O-]` [Olaqvindox], in assay [1] (Olaqvindox 50 ppm in fodder), the “Additional growth” value is 255 g/day and the Fodder efficiency kg/kg came to 1.61 kg/kg. The “Final weight” value in assay [1] (Olaqvindox 50 ppm in fodder, initial weight 7.10 kg) turned out to be 12.47 kg. In assay [1] (Olaqvindox 50 ppm, average, 1 = normal faeces, 2 = loose faeces, 3 = watery diarrhoea), this molecule registered a Diarrhoea index of 2.5. The “Treatments for diarrhoea, % of farrows” value in assay [1] (Olaqvindox 50 ppm, treated with an antibiotic or with zinc oxide because of diarrhoea) is 100 % of farrows. Moreover, the Fodder efficiency kg/kg in assay [2] is reported as 2.07 kg/kg. Further, in assay [2] (initial weight 21.7 kg), the “Additional growth, g/day” value was 777^a g/day.
With Avilamysine, the “effect on growth and fodder consumption compared with the reference group” value in assay [3] (40 ppm Avilamysine) is “increased the growth and fodder consumption effectively”. Besides, in assay [3] (setting [4]), the “ADG” value was determined as 502 g/day and the “FCR kg fodder/kg Weight increase” value is given as 1.81 kg fodder/kg. Also, in assay [3] (group 2, basic fodder + 40 ppm Avilamysine, starting weight 10.6 kg), the “Final weight” value is recorded as 24.1 kg.
